Assay results: patent publication US9351966B2, “Composition comprising a combination of omeprazole and lansoprazole, and a buffering agent, and methods of using same” (The Curators of the University of Missouri, priority 2008, dated 2016)

What was measured:
[1] = cited from earlier work; for t1/2: Table 1, daily dose 15-160 mg as listed; for half-life of elimination, normal, mean: drug given alone; for mean plasma elimination half-life: healthy adults, clinical studies
[2] = Cross-over study, blood draws: AUC and half-life of PPI; format: in vivo, human; conditions: for prolongation factor of elimination half-life: omeprazole and lansoprazole administered together versus normal
Procedure: (§1) A study was performed as a cross-over design, with washout between doses. The subject received the test article after placing a Bravo pH probe in the stomach and verifying its placement with pH readings of less than 2. After a baseline evaluation, to ensure that the pH probe is in the correct place for reading gastric acid in the stomach, the subject has an intravenous access established and a baseline blood draw was taken to provide evidence of a lack of PPI in the blood at baseline. The subject received the one of three different formulations, and the time of administration was noted. Blood draws were taken at intervals to characterize the absorption, distribution and elimination phases of the test article. […] Continuous gastric pH recording was made utilizing the Bravo pH probe and radiofrequency receiver. Gastric pH values were recorded every 10 seconds.
as §1, with “eighteen” for “three”

[3] = clinical trials; Zegerid (omeprazole) and Prevacid (lansoprazole) package inserts; cited from earlier work
[4] = test system: 2C19 and 3A4 isoforms of the Cytochrome P450 enzyme; conditions: liver; cited from earlier work
[5] = test system: Barrett's esophagus; conditions: extended treatment (years), twice per day or more, with or without surgery; cited from earlier work
[6] = rats; drug or its metabolites; cited from earlier work
[7] = test system: intragastric acidity; conditions: after a single dose of PPI (Day 1); 20 mg delayed release; cited from earlier work

Cc1c(OCC(F)(F)F)ccnc1C[S@@+]([O-])c1nc2ccccc2[nH]1 [Dexlansoprazole]
t1/2 [1]: 1 to 1.6 h

COc1ccc2nc([S@@+]([O-])Cc3ncc(C)c(OC)c3C)[nH]c2c1 [Esomerprazole]
t1/2 [1]: 1.1 to 1.6 h

Cc1c(OCC(F)(F)F)ccnc1C[S+]([O-])c1nc2ccccc2[nH]1 (stereo not shown) [Lansoprazole]
half-life ([2]; human, blood, oral, omeprazole and lansoprazole together, e.g. 80 mg lansoprazole+80 mg omeprazole+1680 mg sodium bicarbonate, read-out: elimination half-life when administered together (converted)): 3.7 h | prolongation factor of elimination half-life [2]: 300% | t1/2 [1]: 1 to 1.5 h | half-life of elimination, normal, mean [1]: approximately 1.2 hrs | mean plasma elimination half-life [1]: about 1.5 hours | Adverse effect: Abdominal pain [3]: 2.1 % of patients | Adverse effect: Asthenia [3]: <1 % of patients | Adverse effect: Constipation [3]: 1.0 % of patients | Adverse effect: Diarrhea [3]: 3.8 % of patients | Adverse effect: Headache [3]: <1 % of patients | metabolism by Cytochrome P450 isoforms [4]: approximately equal amounts by both the 2C19 and 3A4 isoforms | patients with reversal of Barrett's esophagus [5]: 3 of 123 | excretion in breast milk [6]: excreted in breast milk

COc1ccc2[nH]c([S+]([O-])Cc3ncc(C)c(OC)c3C)nc2c1 (stereo not shown) [Omeprazole, 5-methoxy-2-[[(4-methoxy-3,5-dimethyl-2-pyridinyl)methyl]sulfinyl]-1H benzimidazole]
prolongation factor of elimination half-life [2]: 200% | elimination half-life when administered together ([2]; omeprazole and lansoprazole together, e.g. 80 mg lansoprazole+80 mg omeprazole+1680 mg sodium bicarbonate): 1.9 h | IGA-24Day 1 [7]: 640 mmol·h/L | t1/2 [1]: 0.9 to 1.5 h | half-life of elimination, normal, mean [1]: approximately 0.95 hrs | mean plasma elimination half-life [1]: less than 1 hours | Adverse effect: Abdominal pain [3]: 5.2 % of patients | Adverse effect: Asthenia [3]: 1.3 % of patients | Adverse effect: Constipation [3]: 1.5 % of patients | Adverse effect: Diarrhea [3]: 3.7 % of patients | Adverse effect: Headache [3]: 2.9 % of patients | metabolism by Cytochrome P450 isoforms [4]: mostly by the 2C19 isoform | patients with reversal of Barrett's esophagus [5]: 3 of 123

COc1ccnc(C[S+]([O-])c2nc3ccc(OC(F)F)cc3[nH]2)c1OC (stereo not shown) [Pantoprazole]
t1/2 [1]: 1.2 to 1.5 h

COCCCOc1ccnc(C[S+]([O-])c2nc3ccccc3[nH]2)c1C (stereo not shown) [Rabeprazole]
t1/2 [1]: 0.8 to 1 h

COc1ccc2[nH]c([S+]([O-])Cc3ncc(C)c(OC)c3C)nc2n1 (stereo not shown) [Tentaoprazole, 5-methoxy-2-[[(4-methoxy-3,5-dimethyl-2-pyridyl)methyl]sulfinyl]imidazo[4,5-b]pyridine]
t1/2 [1]: 6.8 to 8 h
